These results are taken from ChEMBL document CHEMBL5036317, “Identification of Unique Quinazolone Thiazoles as Novel Structural Scaffolds for Potential Gram-Negative Bacterial Conquerors” (J Med Chem, 2021).

Converted amounts (≈) assume the structure as drawn.

The subject of data set [1] is Staphylococcus aureus. The experiment in a line: Antibacterial activity against Staphylococcus aureus ATCC 29213 assessed as inhibition of bacterial growth measured after 24 hrs by two-fold serial dilution method. It is filed as functional.
The subject of a further data set is Klebsiella pneumoniae. The experiment in a line: Antibacterial activity against Klebsiella pneumoniae assessed as inhibition of bacterial growth measured after 24 hrs by two-fold serial dilution method. It is filed as functional.
For data set [2], the system named is Staphylococcus aureus. In words: Antibacterial activity against methicillin-resistant Staphylococcus aureus assessed as inhibition of bacterial growth measured after 24 hrs by two-fold serial dilution method. It is filed as functional.
Data set [3] deals with Escherichia coli. In words: Antibacterial activity against Escherichia coli ATCC 25922 assessed as inhibition of bacterial growth measured after 24 hrs by two-fold serial dilution method. It counts as functional.
Data set [4] is described as follows: Haemolytic activity in human erythrocytes incubated for 2 hrs. It is filed as ADME, cell-based, Erythrocyte.
Data set [5] deals with Staphylococcus aureus. In words: Antibacterial activity against Staphylococcus aureus ATCC 25923 assessed as inhibition of bacterial growth measured after 24 hrs by two-fold serial dilution method. It is filed as functional.
Data set [6] deals with Pseudomonas aeruginosa. In words: Antibacterial activity against Pseudomonas aeruginosa assessed as inhibition of bacterial growth measured after 24 hrs by two-fold serial dilution method. It counts as functional.
Data set [7] relates to Staphylococcus aureus. The experiment in a line: Antibacterial activity against Staphylococcus aureus assessed as inhibition of bacterial growth measured after 24 hrs by two-fold serial dilution method. It is filed as functional.
The test system of data set [8] is Escherichia coli. The experiment in a line: Antibacterial activity against Escherichia coli assessed as inhibition of bacterial growth measured after 24 hrs by two-fold serial dilution method. It counts as functional.
Another data set deals with Acinetobacter baumannii. The experiment in a line: Antibacterial activity against Acinetobacter baumanii assessed as inhibition of bacterial growth measured after 24 hrs by two-fold serial dilution method. It is filed as functional.
Data set [9] deals with Pseudomonas aeruginosa. In words: Antibacterial activity against Pseudomonas aeruginosa ATCC 27853 assessed as inhibition of bacterial growth measured after 24 hrs by two-fold serial dilution method. It is filed as functional.
In a further data set the test system is Enterococcus faecalis. The experiment in a line: Antibacterial activity against Enterococcus faecalis assessed as inhibition of bacterial growth measured after 24 hrs by two-fold serial dilution method. It counts as functional.

As usually defined, the MIC is the least concentration at which growth counts as inhibited. As a reminder, the HC50 is the concentration that lyses half of the red blood cells. High values mean weaker haemolysis, low ones stronger haemolysis. With `O=C(/C(=C/c1ccc2ccccc2c1)n1cnc2cc(Cl)ccc2c1=O)c1nccs1`, the MIC in the data set on Staphylococcus aureus [1] worked out at 16 µg/mL (≈ 36 µM); in the data set with Klebsiella pneumoniae it was 32 µg/mL (≈ 72.1 µM); with Staphylococcus aureus [2], 4 µg/mL (≈ 9.01 µM); in the data set with Escherichia coli [3] it was 4 µg/mL (≈ 9.01 µM); in the data set with Staphylococcus aureus [5], 4 µg/mL (≈ 9.01 µM); in the data set on Pseudomonas aeruginosa [6], 4 µg/mL (≈ 9.01 µM). For the same compound, the minimum inhibitory concentration (MIC) in the data set with Staphylococcus aureus [7] came to 4 µg/mL (≈ 9.01 µM); with Escherichia coli [8] it was 32 µg/mL (≈ 72.1 µM); in the data set on Acinetobacter baumannii, 16 µg/mL (≈ 36 µM); in the data set on Pseudomonas aeruginosa [9] it was 4 µg/mL (≈ 9.01 µM); with Enterococcus faecalis, 16 µg/mL (≈ 36 µM). In data set [4], the HC50 at 2 h was 192 µg/mL.
As to `O=C(/C(=C/c1ccccc1Cl)n1cnc2cc(Cl)ccc2c1=O)c1nccs1`, the MIC with Staphylococcus aureus [1] worked out at 4 µg/mL (≈ 9.34 µM); with Klebsiella pneumoniae, 4 µg/mL (≈ 9.34 µM); with Staphylococcus aureus [2] it was 2 µg/mL (≈ 4.67 µM); with Escherichia coli [3], 2 µg/mL (≈ 4.67 µM); in the data set with Staphylococcus aureus [5], 1 µg/mL (≈ 2.33 µM); in the data set with Pseudomonas aeruginosa [6] it was 2 µg/mL (≈ 4.67 µM). Besides, the MIC amounted to 16 µg/mL (≈ 37.4 µM) in the data set on Staphylococcus aureus [7]; 8 µg/mL (≈ 18.7 µM) in the data set with Escherichia coli [8]; 512 µg/mL (≈ 1200 µM) with Acinetobacter baumannii; 2 µg/mL (≈ 4.67 µM) with Pseudomonas aeruginosa [9]; 1 µg/mL (≈ 2.33 µM) with Enterococcus faecalis. Also, the HC50 at 2 h in [4] was 195 µg/mL.
With `Cc1ccc(/C=C(/C(=O)c2nccs2)n2cnc3cc(Cl)ccc3c2=O)cc1`, the minimum inhibitory concentration (MIC) with Staphylococcus aureus [1] was 4 µg/mL (≈ 9.81 µM); with Klebsiella pneumoniae, 128 µg/mL (≈ 314 µM); with Staphylococcus aureus [2], 64 µg/mL (≈ 157 µM); in the data set on Escherichia coli [3] it was 1 µg/mL (≈ 2.45 µM); with Staphylococcus aureus [5] it was 2 µg/mL (≈ 4.9 µM); with Pseudomonas aeruginosa [6], 4 µg/mL (≈ 9.81 µM). In addition, the minimal inhibitory concentration (MIC) in the data set with Staphylococcus aureus [7] turned out to be 4 µg/mL (≈ 9.81 µM); in the data set on Escherichia coli [8] it was 32 µg/mL (≈ 78.5 µM); with Acinetobacter baumannii it was 1 µg/mL (≈ 2.45 µM); with Pseudomonas aeruginosa [9], 1 µg/mL (≈ 2.45 µM); with Enterococcus faecalis, 8 µg/mL (≈ 19.6 µM). In data set [4], this compound came in with a 50% haemolytic concentration (HC50) at 2 h above 250 µg/mL.
`O=C(/C(=C/c1ncc[nH]1)n1cnc2cc(Cl)ccc2c1=O)c1nccs1`: the MIC is 512 µg/mL (≈ 1330 µM) with Staphylococcus aureus [1]; 64 µg/mL (≈ 167 µM) with Klebsiella pneumoniae; 512 µg/mL (≈ 1330 µM) in the data set with Staphylococcus aureus [2]; 64 µg/mL (≈ 167 µM) in the data set with Escherichia coli [3]; 512 µg/mL (≈ 1330 µM) in the data set with Staphylococcus aureus [5]; 16 µg/mL (≈ 41.7 µM) in the data set with Pseudomonas aeruginosa [6]. The MIC in the data set on Staphylococcus aureus [7] amounted to 512 µg/mL (≈ 1330 µM); in the data set on Escherichia coli [8] it was 256 µg/mL (≈ 667 µM); in the data set on Acinetobacter baumannii it was 512 µg/mL (≈ 1330 µM); with Pseudomonas aeruginosa [9], 16 µg/mL (≈ 41.7 µM); in the data set on Enterococcus faecalis it was 512 µg/mL (≈ 1330 µM). Besides, in data set [4], the concentration for 50% haemolysis (HC50) at 2 h is above 250 µg/mL.
Regarding `Cc1ccc2c(/C=C(/C(=O)c3nccs3)n3cnc4cc(Cl)ccc4c3=O)c[nH]c2c1`, the minimal inhibitory concentration (MIC) was determined as 32 µg/mL (≈ 71.6 µM) with Staphylococcus aureus [1]; 64 µg/mL (≈ 143 µM) in the data set with Klebsiella pneumoniae; 32 µg/mL (≈ 71.6 µM) in the data set on Staphylococcus aureus [2]; 16 µg/mL (≈ 35.8 µM) with Escherichia coli [3]; 32 µg/mL (≈ 71.6 µM) in the data set on Staphylococcus aureus [5]; 64 µg/mL (≈ 143 µM) in the data set with Pseudomonas aeruginosa [6]. The MIC in the data set with Staphylococcus aureus [7] stood at 512 µg/mL (≈ 1150 µM); in the data set with Escherichia coli [8], 128 µg/mL (≈ 286 µM); in the data set on Acinetobacter baumannii, 8 µg/mL (≈ 17.9 µM); in the data set on Pseudomonas aeruginosa [9], 8 µg/mL (≈ 17.9 µM); in the data set with Enterococcus faecalis, 64 µg/mL (≈ 143 µM). The same compound came in with a 50% haemolytic concentration (HC50) at 2 h in data set [4] above 250 µg/mL.
As for `O=C(/C(=C/c1ccc(F)cc1)n1cnc2cc(Cl)ccc2c1=O)c1nccs1`, the minimal inhibitory concentration (MIC) with Staphylococcus aureus [1] worked out at 2 µg/mL (≈ 4.86 µM); in the data set with Klebsiella pneumoniae, 512 µg/mL (≈ 1240 µM); with Staphylococcus aureus [2] it was 4 µg/mL (≈ 9.71 µM); with Escherichia coli [3], 4 µg/mL (≈ 9.71 µM); with Staphylococcus aureus [5], 4 µg/mL (≈ 9.71 µM); with Pseudomonas aeruginosa [6], 2 µg/mL (≈ 4.86 µM). Also, the MIC in the data set on Staphylococcus aureus [7] amounted to 8 µg/mL (≈ 19.4 µM); in the data set on Escherichia coli [8] it was 16 µg/mL (≈ 38.8 µM); in the data set with Acinetobacter baumannii, 256 µg/mL (≈ 622 µM); in the data set on Pseudomonas aeruginosa [9], 2 µg/mL (≈ 4.86 µM); with Enterococcus faecalis it was 4 µg/mL (≈ 9.71 µM). In addition, the concentration for 50% haemolysis (HC50) at 2 h in data set [4] was above 250 µg/mL.
Regarding `O=C(/C(=C/c1cccc(Cl)c1)n1cnc2cc(Cl)ccc2c1=O)c1nccs1`, the MIC in the data set on Staphylococcus aureus [1] was 8 µg/mL (≈ 18.7 µM); in the data set with Klebsiella pneumoniae it was 128 µg/mL (≈ 299 µM); in the data set with Staphylococcus aureus [2], 8 µg/mL (≈ 18.7 µM); in the data set on Escherichia coli [3], 4 µg/mL (≈ 9.34 µM); in the data set with Staphylococcus aureus [5], 8 µg/mL (≈ 18.7 µM); in the data set with Pseudomonas aeruginosa [6], 32 µg/mL (≈ 74.7 µM). The minimum inhibitory concentration (MIC) was found to be 32 µg/mL (≈ 74.7 µM) with Staphylococcus aureus [7]; 4 µg/mL (≈ 9.34 µM) in the data set on Escherichia coli [8]; 1 µg/mL (≈ 2.33 µM) with Acinetobacter baumannii; 4 µg/mL (≈ 9.34 µM) with Pseudomonas aeruginosa [9]; 128 µg/mL (≈ 299 µM) with Enterococcus faecalis. Besides, in data set [4], the HC50 at 2 h is above 250 µg/mL.
`O=C(/C(=C/c1c[nH]c2ccccc12)n1cnc2cc(Cl)ccc2c1=O)c1nccs1`: the MIC in the data set with Staphylococcus aureus [1] was found to be 64 µg/mL (≈ 148 µM); in the data set on Klebsiella pneumoniae it was 128 µg/mL (≈ 296 µM); in the data set with Staphylococcus aureus [2] it was 256 µg/mL (≈ 591 µM); in the data set with Escherichia coli [3] it was 64 µg/mL (≈ 148 µM); with Staphylococcus aureus [5], 64 µg/mL (≈ 148 µM); with Pseudomonas aeruginosa [6], 256 µg/mL (≈ 591 µM). In addition, the MIC amounted to 64 µg/mL (≈ 148 µM) with Staphylococcus aureus [7]; 64 µg/mL (≈ 148 µM) in the data set with Escherichia coli [8]; 256 µg/mL (≈ 591 µM) with Acinetobacter baumannii; 64 µg/mL (≈ 148 µM) in the data set with Pseudomonas aeruginosa [9]; 256 µg/mL (≈ 591 µM) in the data set with Enterococcus faecalis. Moreover, the HC50 at 2 h in [4] was above 250 µg/mL.
